Data published in ChEMBL document CHEMBL4765421, “Synthesis of natural 3'-Prenylchalconaringenin and biological evaluation of ameliorating non-alcoholic fatty liver disease and metabolic syndrome” (Eur J Med Chem, 2020).

Tests used:
Mus musculus = assay: Hypolipidemic activity in tyloxapol-induced Kunming mouse model of hyperlipidemia assessed as reduction in serum triglyceride level administered orally measured after 24 hrs; type: functional, organism-based
HepG2 = assay: Activation of AMPK in oleic, palmitic, linoleic and arachidonic acid 29:47:18:6 (v/v)-induced human HepG2 cells assessed as increase in AMPK phosphorylation at 1 uM by Western blot analysis relative to control; conditions: filed as activator
3T3-L1 = assay: Activation of AMPK in mouse 3T3-L1 matured adipocytes assessed as increase in ACC phosphorylation at 1 uM by Western blot analysis relative to control; type: cell-based; conditions: filed as activator

CC(C)=CCC/C(C)=C/Cc1c(O)cc(O)c(C(=O)/C=C/c2ccc(O)cc2)c1O
Activity (Mus musculus): Dose-dependent effect | Activity (HepG2): 42.9% | Activity (3T3-L1): 260%
